According to patent US9732087B2, “Diamino-pyridine, pyrimidine, and pyridazine modulators of the histamine H4 receptor” (JANSSEN PHARMACEUTICA NV, priority 2008, dated 2017):
Counter-ions that a name gives are not always drawn.

Biological target: human H4 receptor (Homo sapiens (Human), UniProt Q9H3N8)
Experiment: Binding assay on recombinant human histamine H4 receptor ([3H]histamine competition, SK-N-MC cell membranes)
Conditions: membranes harvested with 96 well Brandel system; [3H]histamine 10 nM; average of results; read-out: Brandel Ki
How it was run: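 Membranes from SK-N-MC cells stably or transiently transfected with human H4 receptor, prepared by homogenization and 30,000 g centrifugation in Tris/EDTA. Bound [3H]histamine separated by rapid filtration on PEI-treated GF/C filters, washed with ice-cold Tris/EDTA, counted by scintillation. '>' values denote highest concentration tested.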

Sequence of human H4 receptor (Q9H3N8 whole entry): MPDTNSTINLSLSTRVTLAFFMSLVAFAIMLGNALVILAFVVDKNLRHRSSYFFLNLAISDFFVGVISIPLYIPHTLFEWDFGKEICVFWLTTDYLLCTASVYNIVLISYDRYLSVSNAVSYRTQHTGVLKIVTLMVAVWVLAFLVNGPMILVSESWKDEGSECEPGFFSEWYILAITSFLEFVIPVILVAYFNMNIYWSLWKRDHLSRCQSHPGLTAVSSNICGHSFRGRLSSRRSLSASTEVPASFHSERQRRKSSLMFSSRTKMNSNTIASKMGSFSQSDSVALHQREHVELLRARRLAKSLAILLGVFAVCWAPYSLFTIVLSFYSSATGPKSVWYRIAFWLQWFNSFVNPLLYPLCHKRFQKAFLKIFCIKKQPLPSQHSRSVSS

SMILES | Ki [nM]
N[C@@H]1CCN(c2ccnc(NC3CCOCC3)n2)C1 [Example 30, 4-[(3R)-3-Aminopyrrolidin-1-yl]-N-(tetrahydro-2H-pyran-4-yl)pyrimidin-2-amine] | 42.4
CC(C)CNc1nccc(N2CCN(C)CC2)n1 [Example 31, Isobutyl-[4-(4-methyl-piperazin-1-yl)-pyrimidin-2-yl]-amine] | 69
c1cc(N2CCNCC2)nc(NC2CC3CCC2C3)n1 (centres unmarked) [Example 70, Bicyclo[2.2.1]hept-2-yl-(4-piperazin-1-yl-pyrimidin-2-yl)-amine] | 240
CC(C)CNc1nccc(N2CC(N)C2)n1 [Example 89, 4-(3-Aminoazetidin-1-yl)-N-(2-methylpropyl)pyrimidin-2-amine] | 26.2

Same assay, conditions: membranes harvested with cell harvester; [3H]histamine 10 nM; average of results; read-out: Cell Harvester Ki

SMILES | Ki [nM]
COCCNc1nccc(N2CCN(C)CC2)n1 [Example 60, N-(2-Methoxyethyl)-4-(4-methylpiperazin-1-yl)pyrimidin-2-amine] | 342
CN1CCN(c2ccnc(NCCc3ccccc3)c2)CC1 [Example 250, 4-(4-Methylpiperazin-1-yl)-N-(2-phenylethyl)pyridin-2-amine] | 659
CC(C)Nc1nccc(N2CCNCC2)n1 [Example 67, Isopropyl-(4-piperazin-1-yl-pyrimidin-2-yl)amine] | 275
CN[C@H]1CCN(c2ccnc(NCCCO)c2)C1 [Example 234, 3-({4-[(3S)-3-(Methylamino)pyrrolidin-1-yl]pyridin-2-yl}amino)propan-1-ol] | 7260
CN[C@@H]1CCN(c2ccnc(NC34CC5CC(CC(C5)C3)C4)c2)C1 [Example 218, Adamantan-1-yl-[4-(3R)-(3-methylamino-pyrrolidin-1-yl)-pyridin-2-yl]-amine] | 2.62
CN[C@@H]1CCN(c2ccnc(NCc3ccc(F)cc3)n2)C1 [Example 79, (4-Fluoro-benzyl)-[4-(3R)-(3-methylamino-pyrrolidin-1-yl)-pyrimidin-2-yl]amine] | 11.6
CC(C)CNc1cc(N2CC[C@H](N)C2)ccn1 [Example 14, 4-[(3S)-3-Aminopyrrolidin-1-yl]-N-(2-methylpropyl)pyridin-2-amine] | 114
OCCCNc1cc(N2C[C@H]3CCN[C@H]3C2)cnn1 [Example 305, 3-({5-[(3aR,6aR)-Hexahydropyrrolo[3,4-b]pyrrol-5(1H)-yl]pyridazin-3-yl}amino)propan-1-ol] | 1060
CC(C)(O)CNc1cc(N2CC[C@H](N)C2)ccn1 [Example 273, 1-({4-[(3S)-3-Aminopyrrolidin-1-yl]pyridin-2-yl}amino)-2-methylpropan-2-ol] | 3170
CC(C)CNc1cc(N2C[C@H]3CCN[C@H]3C2)cnn1 [Example 318, 5-[(3aR,6aR)-Hexahydropyrrolo[3,4-b]pyrrol-5(1H)-yl]-N-(2-methylpropyl)pyridazin-3-amine] | 1240
N[C@@H]1CCN(c2ccnc(NC3CCOCC3)n2)C1 [Example 30, 4-[(3R)-3-Aminopyrrolidin-1-yl]-N-(tetrahydro-2H-pyran-4-yl)pyrimidin-2-amine] | 91.8
CC(C)CNc1nccc(N2CCN(C)CC2)n1 [Example 31, Isobutyl-[4-(4-methyl-piperazin-1-yl)-pyrimidin-2-yl]-amine] | 76.9
c1cc(N2CCNCC2)nc(NCC2CCCC2)n1 [Example 187, N-(Cyclopentylmethyl)-4-piperazin-1-ylpyrimidin-2-amine] | 71.5
c1cc(N2CCNCC2)nc(NC2CC3CCC2C3)n1 (centres unmarked) [Example 70, Bicyclo[2.2.1]hept-2-yl-(4-piperazin-1-yl-pyrimidin-2-yl)-amine] | 73
CC(C)CNc1nccc(N2CC(N)C2)n1 [Example 89, 4-(3-Aminoazetidin-1-yl)-N-(2-methylpropyl)pyrimidin-2-amine] | 69.3
CN[C@@H]1CCN(c2cnnc(NCc3ccc(OC)cc3)c2)C1 [Example 400, N-(4-Methoxybenzyl)-5-[(3R)-3-(methylamino)pyrrolidin-1-yl]pyridazin-3-amine] | 2150
CCCCNc1cc(N2CC[C@@H](N)C2)ccn1 [Example 254, 4-[(3R)-3-Aminopyrrolidin-1-yl]-N-butylpyridin-2-amine] | 27.5
c1cc(N2CCCNCC2)nc(NC2CC3CCC2C3)n1 (centres unmarked) [Example 195, N-Bicyclo[2.2.1]hept-2-yl-4-(1,4-diazepan-1-yl)pyrimidin-2-amine] | 7.75
CN[C@@H]1CCN(c2ccnc(N[C@H](C)c3ccccc3)n2)C1 [Example 180, 4-[(3R)-3-(Methylamino)pyrrolidin-1-yl]-N-[(1R)-1-phenylethyl]pyrimidin-2-amine] | 116
CN1CCN(c2ccnc(NC[C@H]3CC[C@H]4C[C@@H]3C4(C)C)c2)CC1 [Example 221, N-{[(1S,2S,5S)-6,6-Dimethylbicyclo[3.1.1]hept-2-yl]methyl}-4-(4-methylpiperazin-1-yl)pyridin-2-amine] | 853
c1cc(N2CCNCC2)cc(NCC2CCCC2)n1 [Example 311, N-(Cyclopentylmethyl)-4-piperazin-1-ylpyridin-2-amine] | 226
CNC1CN(c2ccnc(NCC(C)(C)O)n2)C1 [Example 122] | 64.7
CNC1CN(c2cnnc(NC3CC3)c2)C1 [Example 351, N-Cyclopropyl-5-[3-(methylamino)azetidin-1-yl]pyridazin-3-amine] | 206
COc1ccc(CNc2nccc(N3CC[C@@H](N)C3)n2)cc1 [Example 185, 4-[(3R)-3-Aminopyrrolidin-1-yl]-N-(4-methoxybenzyl)pyrimidin-2-amine] | 1730
N[C@@H]1CCN(c2ccnc(NC3CCC3)n2)C1 [Example 28, 4-[(3R)-3-Aminopyrrolidin-1-yl]-N-cyclobutylpyrimidin-2-amine] | 8.4

SMILES | Ki [nM]
CN[C@H]1CCN(c2ccnc(N[C@H]3C[C@H]4CC[C@]3(C)C4(C)C)c2)C1 [Example 206, 4-[(3S)-3-(Methylamino)pyrrolidin-1-yl]-N-[(1R,2S,4R)-1,7,7-trimethylbicyclo[2.2.1]hept-2-yl]pyridin-2-amine] | 44.9
N[C@@H]1CCN(c2cnnc(NCCCO)c2)C1 [Example 313, 3-({5-[(3R)-3-Aminopyrrolidin-1-yl]pyridazin-3-yl}amino)propan-1-ol] | > 10000
CN1CCN(c2ccnc(NCC3CCCCC3)c2)CC1 [Example 212, N-(Cyclohexylmethyl)-4-(4-methylpiperazin-1-yl)pyridin-2-amine] | 275
CN[C@H]1CCN(c2ccnc(NCc3ccccn3)n2)C1 [Example 200, 4-[(3S)-3-(Methylamino)pyrrolidin-1-yl]-N-(pyridin-2-ylmethyl)pyrimidin-2-amine] | 860
CN[C@H]1CCN(c2ccnc(N[C@H](C)C3CCCCC3)c2)C1 [Example 213, N-[(1R)-1-Cyclohexylethyl]-4-[(3S)-3-(methylamino)pyrrolidin-1-yl]pyridin-2-amine] | 157
N[C@H]1CCN(c2ccnc(NCCc3ccccc3)c2)C1 [Example 276, 4-[(3S)-3-Aminopyrrolidin-1-yl]-N-(2-phenylethyl)pyridin-2-amine] | 1640
CNC1CN(c2ccnc(NCc3ccc(F)cc3)n2)C1 [Example 178, N-(4-Fluorobenzyl)-4-[3-(methylamino)azetidin-1-yl]pyrimidin-2-amine] | 243
N[C@H]1CCN(c2ccnc(NCc3ccc(F)cc3)n2)C1 [Example 199, 4-[(3S)-3-Aminopyrrolidin-1-yl]-N-(4-fluorobenzyl)pyrimidin-2-amine] | 2300
Cc1ccc(CNc2nccc(N3CCNCC3)n2)cc1 [Example 156, N-(4-Methylbenzyl)-4-piperazin-1-ylpyrimidin-2-amine] | 413
NC1CN(c2ccnc(N[C@@H]3CCOC3)n2)C1 [Example 93, 4-(3-Aminoazetidin-1-yl)-N-[(3R)-tetrahydrofuran-3-yl]pyrimidin-2-amine] | 702
Fc1ccc(CNc2cc(N3CCNCC3)cnn2)cc1 [Example 346, N-(4-Fluorobenzyl)-5-piperazin-1-ylpyridazin-3-amine] | > 10000
CN[C@@H]1CCN(c2ccnc(NC3CC4CC(C3C)C4(C)C)n2)C1 (stereo partly drawn) [Example 184, 4-[(3R)-3-(Methylamino)pyrrolidin-1-yl]-N-[(1S,2S,3S,5R)-2,6,6-trimethylbicyolo[3.1.1]hept-3-yl]pyrimidin-2-amine] | 1.58
CN[C@H]1CCN(c2ccnc(NCc3ccccc3)c2)C1 [Example 237, N-Benzyl-4-[(3S)-3-(methylamino)pyrrolidin-1-yl]pyridin-2-amine] | 585
CCCNc1cc(N2CCNCC2)ccn1 [Example 17, 4-Piperazin-1-yl-N-propylpyridin-2-amine dihydrochloride] | 375
CNC1CN(c2ccnc(NCc3ccc(F)cc3)c2)C1 [Example 295, N-(4-Fluorobenzyl)-4-[3-(methylamino)azeidin-1-yl]pyridin-2-amine] | 163
c1ccc(CNc2nccc(N3CCNCC3)n2)cc1 [Example 131, N-Benzyl-4-piperazin-1-ylpyrimidin-2-amine] | 820
N[C@H]1CCN(c2ccnc(NCc3ccc(F)cc3)c2)C1 [Example 263] | 3090
Cc1ccc(CNc2nccc(N3CC[C@@H](N)C3)n2)cc1 [Example 186, 4-[(3R)-3-Aminopyrrolidin-1-yl]-N-(4-methylbenzyl)pyrimidin-2-amine] | 691
CC(C)CNc1cc(N2CC(N)C2)cnn1 [Example 328, 5-(3-Aminoazetidin-1-yl)-N-(2-methylpropyl)pyridazin-3-amine] | 1680
CN[C@H]1CCN(c2ccnc(NCCOC)c2)C1 [Example 238, N-(2-Methoxyethyl)-4-[(3S)-3-(methylamino)pyrrolidin-1-yl]pyridin-2-amine] | 555
CN1CCN(c2ccnc(NCc3ccc(F)cc3)c2)CC1 [Example 249, N-(4-Fluorobenzyl)-4-(4-methylpiperazin-1-yl)pyridin-2-amine] | 257
CC1C(Nc2cc(N3C[C@H]4CCN[C@H]4C3)ccn2)C[C@H]2C[C@@H]1C2(C)C (stereo partly drawn) [Example 287, 4-[(3aR,6aR)-Hexahydropyrrolo[3,4-b]pyrrol-5(1H)-yl]-N-[(1S,5R)-2,6,6-trimethylbicyclo[3.1.1]hept-3-yl]pyridin-2-amine] | 98.9
Cc1ccc(CNc2cc(N3CC[C@@H](N)C3)cnn2)cc1 [Example 343, 5-[(3R)-3-Aminopyrrolidin-1-yl]-N-(4-methylbenzyl)pyridazin-3-amine] | > 10000
CN(CCN)c1cnnc(NCC2CCCC2)c1 [Example 303, N^5-(2-Aminoethyl)-N^3-(cyclopentylmethyl)-N^5-methylpyridazine-3,5-diamine] | 417
